The assay concerns the target Tryptophan--tRNA ligase (Mycobacterium tuberculosis (strain ATCC 25618 / H37Rv), UniProt P9WFT3). The experiment in a line: Biochemical assay for Mt-TrpRS. The format is functional.

Tryptophan--tRNA ligase, sequence (P9WFT3 whole entry): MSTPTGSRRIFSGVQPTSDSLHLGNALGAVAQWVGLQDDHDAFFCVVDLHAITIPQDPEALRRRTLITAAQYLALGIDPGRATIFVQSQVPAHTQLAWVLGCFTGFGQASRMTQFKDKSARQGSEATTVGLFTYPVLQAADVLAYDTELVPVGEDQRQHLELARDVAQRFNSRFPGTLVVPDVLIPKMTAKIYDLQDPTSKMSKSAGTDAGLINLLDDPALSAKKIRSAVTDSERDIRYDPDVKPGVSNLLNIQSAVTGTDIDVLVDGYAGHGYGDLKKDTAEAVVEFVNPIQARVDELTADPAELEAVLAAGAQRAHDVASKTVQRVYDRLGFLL

Take `O=C(NCCc1ccncc1)c1cccnc1OCC(F)(F)F`: the IC50 (in general, the concentration that inhibits the measured activity by half) is more than 195 µM. Take `Cc1noc(C)c1CN(Cc1cccs1)C1CCS(=O)(=O)C1` (stereo not given): the IC50 is more than 195 µM. Take `c1cc(-c2cnc(C3CCNCC3)cn2)n[nH]1`: the half-inhibitory concentration (IC50) was more than 195 µM. Under `NC(=O)C1CCN(C(=O)c2ccn(-c3ccc(F)cc3)n2)CC1` stands more than 195 µM.

Consider `COCCNC(=O)c1ccccc1-n1cc(CN)cn1`, for which the IC50 is more than 195 µM. To `CCC(O)CN1CCN(C(=O)c2cc3ccccc3n2CC)CC1` (stereo not given) belongs more than 195 µM; to `COCCN1C(=O)CC[C@@H]2[C@H]1CCN2S(=O)(=O)c1cccs1`, more than 195 µM; to `CSCC(C)(O)CNc1ncccc1I` (stereo not given), more than 195 µM.

`COc1ccc(-c2cc(N)on2)cc1`: the IC50 is more than 195 µM. To `COc1ccccc1C1=NOC(CC2(C(=O)O)CCOCC2)C1` (stereo not given) belongs more than 195 µM. Under `CNc1cc(C2CCCN2Cc2ccc(OCC(=O)O)cc2)ccn1` (stereo not given) stands more than 195 µM; under `CC(=O)N1N=C(c2cccs2)OC1C(=O)NCCc1cccc(Cl)c1` (stereo not given), more than 195 µM; under `Cc1cc(C(F)(F)F)nn1CCCNC(=O)C1CCCO1` (stereo not given), more than 195 µM. Under `Cc1ccnc(N2CCC(C(N)=O)CC2)n1` stands more than 195 µM.

Turning to `COc1cc(N(C)CCC(O)c2ccccc2)ncn1` (stereo not given), the IC50 is more than 195 µM. Under `CNc1cncc(C2CCCN2Cc2cccc(C)n2)n1` (stereo not given) stands more than 195 µM. Turning to `CN(C)[C@@H]1CN(C(=O)Cc2ccc(F)cc2)[C@@H]2CCCO[C@H]12`, the IC50 was more than 195 µM. Under `CN(C)c1nccc(C2CCN(C3CCCCC3O)CC2)n1` (stereo not given) stands more than 195 µM; under `CNC(=O)C1(C)CN(c2nc(C)cc(C)n2)CCO1` (stereo not given), more than 195 µM. Under `O=C(O)C1(Cc2cccc(-c3ccc(F)cc3)c2)CCOCC1` stands more than 195 µM; under `C[C@H](N)Cn1nc(-c2cccs2)oc1=O`, more than 195 µM. To `CC1(C(=O)N2CCOCC2)CN(Cc2ncc[nH]2)CCO1` (stereo not given) belongs more than 195 µM. `O=C(c1cncs1)N1CCC(c2cnccn2)CC1` showed an IC50 of more than 195 µM. To `CC(=O)NC(=O)C1(CCCc2ccncc2)CCN1` (stereo not given) belongs more than 195 µM. To `CN(C)CCN1C[C@@H]2CN(c3ccccc3)C[C@@H]2C1=O` belongs more than 195 µM; to `Cc1cnn(CCCNC2Cc3ccccc3C2)c1`, more than 195 µM. `CN(C)C(CNCc1nc(-c2ccsc2)no1)c1ccsc1` (stereo not given) gave an IC50 of more than 195 µM. Under `O=C(NCCN1CCOCC1)Nc1cnc2cc(Cl)ccc2c1O` stands more than 195 µM. Under `Cc1cccc(CN2CCC(c3nnsc3S(C)(=O)=O)CC2)c1` stands more than 195 µM.

`CCc1ccc(C(=O)N2CCC(c3nncn3CC)CC2)s1` gave an IC50 of more than 195 µM. Under `c1ccc(OCC2C[C@@H]3[C@@H](C2)OCCN3Cc2ccoc2)nc1` (stereo not given in full) stands more than 195 µM. Take `CCc1ncnc2c1CCN(CCOC)CC2`: the IC50 was more than 195 µM.

The molecule `CCCC1CN(CC(C)C)C(=O)c2cccnc2O1` (stereo not given) showed a half-maximal inhibitory concentration (IC50) of more than 195 µM. Under `COCCC(=O)N1CCCC1c1csc(Nc2ccccn2)n1` (stereo not given) stands more than 195 µM; under `COCCN1CC(=O)c2sc(NC(C)C)nc2C1`, more than 195 µM; under `O=C(c1cccnn1)N1C[C@@H]2CC[C@H](Oc3cccc(F)c3)[C@@H]2C1`, more than 195 µM.

For `CCN(CC)S(=O)(=O)N1CCCC(c2ncc3c(n2)CCN(C)C3)C1` (stereo not given), the IC50 was more than 195 µM. Turning to `Cc1nc(C2CCCN2CC(=O)N(C)Cc2ccsc2)no1` (stereo not given), the IC50 was more than 195 µM. To `CN1CCC(Cc2cncc(-c3ccccc3C(=O)O)n2)C1` (stereo not given) belongs more than 195 µM; to `Cn1ccc(C(=O)N2CCOC(c3ccccn3)C2)cc1=O` (stereo not given), more than 195 µM; to `CN(CCc1ccccn1)C(=O)Nc1cc(C(F)(F)F)c[nH]c1=O`, more than 195 µM. Under `CNC(=O)Nc1cnc2cc(Cl)ccc2c1O` stands more than 195 µM. Take `CSCCC(NC(=O)c1nc(SC)ncc1Cl)C(=O)O` (stereo not given): the IC50 was more than 195 µM.

In turn, `CN(C)C(CNCc1nc(-c2ccsc2)no1)c1cccs1` (stereo not given) had an IC50 of more than 195 µM. `CN1C(=O)CC(C(=O)O)C12CCN(Cc1ccc(Cl)c(F)c1)CC2` (stereo not given) gave an IC50 of more than 195 µM. Under `COc1ccc(C2Nc3cc(Cl)ccc3C3=NCCN32)cc1O` (stereo not given) stands more than 195 µM. To `CCn1cnnc1C1CCN(C(=O)c2cc(C)c(C)s2)CC1` belongs more than 195 µM; to `COc1ccc2c3c1CN(C(C)=O)CC3=CC(C)(C)CO2`, more than 195 µM.

Molecule `CN(C)c1ncccc1CNC(=O)N1CCCC1CN1CCCC1` (stereo not given) had an IC50 of more than 195 µM. `NC(=O)C1(CCCc2ccncc2)CCCN1` (stereo not given) had an IC50 of more than 195 µM. Take `COc1ccc(-c2cc(C3CCCNC3)ccn2)cc1` (stereo not given): the IC50 was more than 195 µM.

`CC(=O)N(C)C(c1cccc(F)c1)c1ccccn1` (stereo not given) had an IC50 of more than 195 µM.

`Cc1ccc(CNC(=O)c2ccc(CNS(C)(=O)=O)o2)cc1F`: the IC50 is more than 195 µM.

For `O=C(O)CCc1nc2nccc(-c3ccc(F)cc3)n2n1`, the concentration for half-maximal inhibition (IC50) was more than 195 µM. Molecule `Cc1ccc2c(c1C)OCC2NCc1ccc(C#N)cc1` (stereo not given) had a 50% inhibitory concentration (IC50) of more than 195 µM.

On to `NC(=O)CN1CCC(c2cccc(Oc3ccccc3)n2)CC1`, for which the IC50 is more than 195 µM.

Take `Cc1nn(C)c(C)c1C1COCCN1C(=O)c1ccc(Cl)o1` (stereo not given): the IC50 was more than 195 µM. Under `CCOC1COC2(CCN(CC3CC3)CC2)C1` (stereo not given) stands more than 195 µM. To `CNC(=O)CCc1cc(C)nc(C2CCCCN2)n1` (stereo not given) belongs more than 195 µM. To `Cc1cc(NC(=O)CNC2CCc3nc(C(C)C)nn3C2)no1` (stereo not given) belongs more than 195 µM.

The molecule `Cc1cc(N(C)C)nc(C2CCNC2)n1` (stereo not given) had an IC50 of more than 195 µM. With `Cc1ccc(C(=O)NS(=O)(=O)c2ccccc2Cl)c(=O)[nH]1`, the IC50 was more than 195 µM. Molecule `COCC(=O)N1CCO[C@]2(CCC[C@H]2COC)C1` showed an IC50 of more than 195 µM.

`O=C1CN(CC2CC2)Cc2nc(NCc3ccccc3)sc21` showed an IC50 of more than 195 µM. Under `CC(C)c1ccc(-n2ncc(C(=O)NCC3COC(C)(C)O3)c2N)cc1` (stereo not given) stands more than 195 µM; under `O=C(C1CCCC1)N1CCCC(c2nc(O)cc(-c3ccncc3)n2)C1` (stereo not given), more than 195 µM; under `O[C@H]1CN(Cc2cccc(C(F)(F)F)c2)CC[C@@]12CCCO2`, more than 195 µM.

Consider `Cn1cnnc1C1CCN(C(=O)c2cc3c(s2)CCCC3)CC1`, for which the IC50 was more than 195 µM. Molecule `Cc1c(Br)cc2c(c1C)OCC(N(C)C)C2=O` (stereo not given) gave an IC50 of more than 195 µM. Under `Cc1cc(C)nc(C2CCN(C(=O)c3cncnc3C)C2)n1` (stereo not given) stands more than 195 µM. The molecule `Cc1ccc(S(=O)(=O)NCc2[nH]ncc2Br)cc1F` had an IC50 of more than 195 µM. Under `CC(=O)N1CCCC(c2cccc(-n3ccnc3)n2)C1` (stereo not given) stands more than 195 µM; under `CS(=O)(=O)NC1CCN(C(=O)NCC2CCCO2)CC1` (stereo not given), more than 195 µM; under `O=C(c1cnco1)N1C[C@@H](O)[C@H](Oc2cccc(F)c2)C1`, more than 195 µM.

`Cc1cc(C)n(CC2CCCN2C(=O)c2c(C)noc2C)n1` (stereo not given) showed an IC50 of more than 195 µM.

`CC(=O)N1CCN(CC(N)=O)CC(COc2ccccc2)C1` (stereo not given) showed an IC50 of more than 195 µM. `Nc1nccc(C2CCN(CC3CC3)C2)n1` (stereo not given): the IC50 is more than 195 µM.

For `CO[C@H]1CN(Cc2cc(F)ccc2F)CC[C@@]12CCCO2`, the concentration for half-maximal inhibition (IC50) was more than 195 µM. Under `COCC(=O)N1CCCC(c2cccc(-n3ccnc3)n2)C1` (stereo not given) stands more than 195 µM; under `CCOC(=O)COc1ccc(C(C)=O)c(O)c1`, more than 195 µM. Under `CN(C)CCO[C@H]1CN(CC2CC2)[C@@H]2CCCO[C@H]12` stands more than 195 µM. To `O=C(CCn1ccnc1)N1C[C@@H](O)[C@H](Oc2cccc(F)c2)C1` belongs more than 195 µM. Take `O=c1[nH]c(-c2ccncc2)ncc1-c1ccnc(NC2CC2)n1`: the IC50 is more than 195 µM. The molecule `O=C(N[C@@H]1CN(Cc2ccc3[nH]ccc3c2)C[C@H]1O)c1cscn1` gave an IC50 of more than 195 µM. To `COc1cccc(CNc2cnn(CC(F)F)c2)c1` belongs more than 195 µM; to `O=C(c1cccnc1)N1CCC(c2nc(O)cc(-c3ccncc3)n2)C1` (stereo not given), more than 195 µM; to `CC(C)CC(=O)N1CC(=O)N(Cc2ccco2)CC(O)C1` (stereo not given), more than 195 µM. Under `O=C(NC1CC1)N1C[C@@H]2CCN(C(=O)c3cscn3)[C@@H]2C1` stands more than 195 µM.

`CC(=O)N1CCCC(Cc2nccn2C)C1` (stereo not given) showed an IC50 of more than 195 µM. Under `Cc1cccc(C2CCCN(C(=O)c3ccncc3)C2)n1` (stereo not given) stands more than 195 µM; under `CCCC(=O)N1CCCC(c2ccccn2)C1` (stereo not given), more than 195 µM; under `CSc1ncc(Cl)c(C(=O)NC(Cc2ccccc2)C(=O)O)n1` (stereo not given), more than 195 µM. Turning to `CC(=O)N1CCN(c2cc(CCN)nc(C3CC3)n2)CC1`, the IC50 was more than 195 µM.

`CN(Cc1cnn(C)c1)C(=O)CN1CCCC(Cn2cncn2)C1` (stereo not given) gave an IC50 of more than 195 µM. To `O=C(c1ccccc1)N1CCO[C@@H]2CN(Cc3ccc[nH]3)C[C@@H]2C1` belongs more than 195 µM; to `CCc1n[nH]c(C(=O)NCCn2ccc(C)n2)c1C`, more than 195 µM. To `COC(=O)c1ccc(CNCc2ccn(C)n2)cc1` belongs more than 195 µM; to `CCn1cc(CN2CCC(c3[nH]ncc3S(C)(=O)=O)C2)cn1` (stereo not given), more than 195 µM.

In turn, `O=C(Cn1ccnc1)N1C[C@@H]2CC[C@H](Oc3ccccc3F)[C@@H]2C1` showed an IC50 of more than 195 µM.

`CCc1noc(CN2CCN(c3nccs3)CC2)n1` showed an IC50 of more than 195 µM. Consider `COc1ccc(S(=O)(=O)N2CCC(O)(CN(C)C)C2)cc1` (stereo not given), for which the IC50 was more than 195 µM. Under `Cc1ccc(S(=O)(=O)N2CCC(O)(CN(C)C)C2)cc1` (stereo not given) stands more than 195 µM; under `CN(C)CCn1c([C@H]2CCCO2)cc2cccnc21`, more than 195 µM.

For `O=C(NS(=O)(=O)c1cccnc1)C1CC(c2ccccc2)=NO1` (stereo not given), the IC50 is more than 195 µM.

Molecule `Cc1cc(C[C@@H]2COC[C@H]2NCc2ccc(Cl)c(Cl)c2)on1` showed a concentration for half-maximal inhibition (IC50) of more than 195 µM. Under `Cc1ccccc1-c1cncc(C2CCN(CCO)CC2)n1` stands more than 195 µM. Consider `CC(C)c1ncc(CN2CCC(CO)C2)cn1` (stereo not given), for which the IC50 was more than 195 µM. Under `Cc1ccc2c(c1)[C@@H](CC(=O)N(C)C)CCO2` stands more than 195 µM; under `CS(=O)(=O)NC[C@]1(O)CCN(C(=O)Cc2cccs2)C[C@H]1O`, more than 195 µM; under `CN(Cc1ccc(F)cc1)CC1(O)CCN(C(=O)c2ccsc2)C1` (stereo not given), more than 195 µM.

Values taken from ChEMBL document CHEMBL3988442, “University of Dundee, Small-Polar-MMV Screening Library” (2021).
